The text below walks through data of paper PMC3789958, “A Bacterial Glucanotransferase Can Replace the Complex Maltose Metabolism Required for Starch to Sucrose Conversion in Leaves at Night*” (The Journal of Biological Chemistry, 2013).

Series [1] deals with T1, DPE2 (Arabidopsis thaliana, UniProt Q8RXD9).
T1 construct: recombinant in E. coli Rosetta II, pET151, N-terminal His6 tag removed with TEV protease; homodimer; biotinylated for SPR
T1 sequence (Q8RXD9 1-955): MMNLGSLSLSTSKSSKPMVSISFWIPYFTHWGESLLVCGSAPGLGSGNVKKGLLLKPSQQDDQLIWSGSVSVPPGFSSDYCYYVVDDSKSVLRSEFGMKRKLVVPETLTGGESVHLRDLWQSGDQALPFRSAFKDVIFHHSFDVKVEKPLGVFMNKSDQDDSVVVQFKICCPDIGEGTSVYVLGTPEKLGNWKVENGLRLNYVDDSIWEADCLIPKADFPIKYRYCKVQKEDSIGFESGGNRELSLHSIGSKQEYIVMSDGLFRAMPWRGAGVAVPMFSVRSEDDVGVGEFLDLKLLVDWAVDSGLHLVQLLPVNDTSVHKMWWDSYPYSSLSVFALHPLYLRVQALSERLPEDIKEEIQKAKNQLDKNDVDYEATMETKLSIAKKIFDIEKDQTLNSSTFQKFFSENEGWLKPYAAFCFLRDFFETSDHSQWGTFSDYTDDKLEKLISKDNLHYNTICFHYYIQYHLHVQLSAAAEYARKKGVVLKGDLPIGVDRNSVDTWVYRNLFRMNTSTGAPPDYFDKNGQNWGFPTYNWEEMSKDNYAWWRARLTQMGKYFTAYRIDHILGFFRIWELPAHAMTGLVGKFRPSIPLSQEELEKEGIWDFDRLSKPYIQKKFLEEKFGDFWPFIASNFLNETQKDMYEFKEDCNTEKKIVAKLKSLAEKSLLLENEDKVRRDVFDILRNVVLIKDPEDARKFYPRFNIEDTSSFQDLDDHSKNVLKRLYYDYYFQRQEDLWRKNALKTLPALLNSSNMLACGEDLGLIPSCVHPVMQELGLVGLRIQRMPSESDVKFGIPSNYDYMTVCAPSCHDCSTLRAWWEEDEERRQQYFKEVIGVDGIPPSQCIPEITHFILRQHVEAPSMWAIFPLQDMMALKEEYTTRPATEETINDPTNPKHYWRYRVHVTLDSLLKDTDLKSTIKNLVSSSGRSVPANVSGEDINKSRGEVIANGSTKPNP
Nature of the series: SPR, steady-state affinity fit, biotinylated protein on streptavidin chip. It counts as binding. Particulars: 10 mM HEPES pH 7.0, 25 °C. For orientation: SPR reads the build-up and loss of mass on a sensor chip optically.

Series [2] has as its target T2, MalQ (Escherichia coli, UniProt P15977).
T2 construct: recombinant in E. coli, His-tagged, IMAC purified; biotinylated or amine-coupled for SPR
T2 sequence (P15977 1-694): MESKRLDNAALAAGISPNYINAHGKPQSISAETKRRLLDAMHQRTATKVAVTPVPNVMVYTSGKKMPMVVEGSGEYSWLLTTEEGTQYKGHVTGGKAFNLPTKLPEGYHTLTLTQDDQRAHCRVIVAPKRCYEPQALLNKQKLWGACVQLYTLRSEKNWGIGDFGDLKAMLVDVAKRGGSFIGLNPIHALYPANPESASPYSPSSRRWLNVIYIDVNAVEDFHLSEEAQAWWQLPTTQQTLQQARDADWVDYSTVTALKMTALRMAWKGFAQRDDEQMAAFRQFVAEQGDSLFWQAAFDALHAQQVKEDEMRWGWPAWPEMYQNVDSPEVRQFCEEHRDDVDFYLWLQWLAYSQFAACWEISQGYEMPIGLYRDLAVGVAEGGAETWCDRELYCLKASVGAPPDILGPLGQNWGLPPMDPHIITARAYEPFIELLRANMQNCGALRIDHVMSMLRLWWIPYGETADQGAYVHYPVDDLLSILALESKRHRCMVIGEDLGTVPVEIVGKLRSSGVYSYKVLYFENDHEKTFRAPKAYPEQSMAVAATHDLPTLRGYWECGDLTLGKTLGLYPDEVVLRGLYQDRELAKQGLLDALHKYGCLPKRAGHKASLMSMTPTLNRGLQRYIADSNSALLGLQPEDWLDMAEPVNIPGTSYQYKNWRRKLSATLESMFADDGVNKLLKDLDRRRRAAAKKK
The description is as above. It counts as binding. As to conditions: 10 mM HEPES pH 7.0, 25 °C.

The target of series [3] is T1, DPE2. The series can be described thus: coupled hexokinase / glucose-6-phosphate dehydrogenase assay, Hanes plot. As to conditions: maltose as donor, glycogen as acceptor; two separate preparations; pH 7.9, 1 mM MgCl2. Type of series: biochemical.
Series [4] deals with T2, MalQ. The description is as above. It counts as biochemical. Particulars: maltose as donor, Glc7 as acceptor; two separate preparations; pH 7.9, 1 mM MgCl2.
In series [5] the target is T2, MalQ. The series can be described thus: SPR, steady-state affinity fit, MalQ amine-coupled to CM5 chip. Type of series: binding. Particulars: 10 mM HEPES pH 7.0, 25 °C; read-out: dissociation constant.
Series [6] concerns the molecule itself. The series can be described thus: SEC; Superdex S-200 16/60 in 25 mM HEPES (pH 7.5), 50 mM NaCl; purified DPE2 after His tag cleavage; elution compared with molecular mass markers. (In general: SEC sorts molecules by how far they enter the pores of the column.)

Consider `OC[C@H]1O[C@H](O[C@H]2[C@H](O)[C@@H](O)[C@@H](O[C@H]3[C@H](O)[C@@H](O)[C@@H](O[C@H]4[C@H](O)[C@@H](O)[C@@H](O[C@H]5[C@H](O)[C@@H](O)C(O)O[C@@H]5CO)O[C@@H]4CO)O[C@@H]3CO)O[C@@H]2CO)[C@H](O)[C@@H](O)[C@@H]1O` (stereo partly drawn) [Glc5], for which the dissociation constant result on DPE2 [1] is “bound malto-oligosaccharides Glc5, Glc6, and Glc7 more strongly than Glc4”; at MalQ [2] it was “progressively lower affinities for Glc5, Glc6, and Glc7”.

As to `OC[C@H]1O[C@H](O[C@H]2[C@H](O)[C@@H](O)[C@@H](O[C@H]3[C@H](O)[C@@H](O)[C@@H](O[C@H]4[C@H](O)[C@@H](O)[C@@H](O[C@H]5[C@H](O)[C@@H](O)[C@@H](O[C@H]6[C@H](O)[C@@H](O)[C@@H](O[C@H]7[C@H](O)[C@@H](O)C(O)O[C@@H]7CO)O[C@@H]6CO)O[C@@H]5CO)O[C@@H]4CO)O[C@@H]3CO)O[C@@H]2CO)[C@H](O)[C@@H](O)[C@@H]1O` (stereo partly drawn) [Glc7], the dissociation constant entry at DPE2 [1] is “bound malto-oligosaccharides Glc5, Glc6, and Glc7 more strongly than Glc4”; on MalQ [2], “progressively lower affinities for Glc5, Glc6, and Glc7”.

On to `OC[C@H]1O[C@H](O[C@H]2[C@H](O)[C@@H](O)[C@@H](O[C@H]3[C@H](O)[C@@H](O)[C@@H](O[C@H]4[C@H](O)[C@@H](O)[C@@H](O[C@H]5[C@H](O)[C@@H](O)[C@@H](O[C@H]6[C@H](O)[C@@H](O)C(O)O[C@@H]6CO)O[C@@H]5CO)O[C@@H]4CO)O[C@@H]3CO)O[C@@H]2CO)[C@H](O)[C@@H](O)[C@@H]1O` (stereo partly drawn) [Glc6], for which the dissociation constant entry on DPE2 [1] was “bound malto-oligosaccharides Glc5, Glc6, and Glc7 more strongly than Glc4”; at MalQ [2], “progressively lower affinities for Glc5, Glc6, and Glc7”.

Turning to `OC[C@H]1O[C@H](O[C@H]2[C@H](O)[C@@H](O)C(O)O[C@@H]2CO)[C@H](O)[C@@H](O)[C@@H]1O` (stereo partly drawn) [maltose], the Km is 2.9 and 2.3 mM on DPE2 [3]; 2.1 and 1.9 mM at MalQ [4].

Consider `OC[C@H]1O[C@H](O[C@H]2[C@H](O)[C@@H](O)[C@@H](O[C@H]3[C@H](O)[C@@H](O)C(O)O[C@@H]3CO)O[C@@H]2CO)[C@H](O)[C@@H](O)[C@@H]1O` (stereo partly drawn) [Glc3], for which the Kd on MalQ [5] worked out at 260 nM.

Regarding `OC[C@H]1O[C@H](O[C@H]2[C@H](O)[C@@H](O)[C@@H](O[C@H]3[C@H](O)[C@@H](O)[C@@H](O[C@H]4[C@H](O)[C@@H](O)C(O)O[C@@H]4CO)O[C@@H]3CO)O[C@@H]2CO)[C@H](O)[C@@H](O)[C@@H]1O` (stereo partly drawn) [Glc4], at DPE2 [1], the dissociation constant entry is “bound malto-oligosaccharides Glc5, Glc6, and Glc7 more strongly than Glc4”. In addition, the Kd at MalQ [5] stood at 410 nM.

B1: DPE2 (4-alpha-glucanotransferase, disproportionating enzyme 2) from Arabidopsis, recombinant (enzyme, Arabidopsis thaliana, UniProt Q8RXD9 1-955, looked up)
chain: T1 sequence (Q8RXD9 1-955)
notes: DPE2, cytosolic 4-alpha-glucanotransferase of Arabidopsis thaliana, At2g40840; also called native DPE2; recombinant DPE2; source: E. coli Rosetta II, purified (nickel IMAC, TEV protease treatment, second IMAC, Superdex S-200); not shown: His6, N-terminal, cleaved
What is called stoichiometry N is the number of molecules, sites or subunits per partner or assembly. As to B1, in series [6], the “stoichiometry N” value is 2.
